Structures are written as SMILES. pIC50: −log10 of the molar value.

Usually Cmax stands for the highest concentration seen after dosing. As usually defined, the Tmax is the time at which the peak concentration occurs. By bioavailability is commonly meant the share of a dose that reaches the circulation, judged against a reference dose that is usually intravenous. What is called pIC50 is −log10 of the IC50, conventionally taken in molar units.

Data set [1] can be described thus: Pharmacokinetic profile after intravenous and oral administration. It is filed as in vivo. The following applies: rat, IV 1 mg/kg, oral 5 mg/kg; for Cmax / Tmax / Vd / bioavailability: male, Sprague-Dawley, plasma. On the procedure:
The pharmacokinetic profile of Compound 1 was evaluated following intravenous and oral administration in rats. Sprague-Dawley male rats obtained from Charles River, San Diego, Calif. were acclimated for 24 hours.
Compounds of this invention were formulated at a concentration of 0.5 mg/mL for IV administration at a 1 mg/kg dose and 1 mg/mL for oral administration at a 5 mg/kg dose. All animals were weighed before dosing. The body weight was used to calculate the actual dose for each animal. The intravenous dose was administered through the jugular vein catheter in less than 1 minute. The oral dose volume was 1.5 mL for all PO rats administered through oral lavage.
For IV dosing, blood samples were collected using a pre-heparinized syringe via the carotid artery catheter before dosing and at t=2, 5, 15, 30, 60, 120, 180, 360, and 480 minutes post dosing. For PO dosing, blood samples were collected using a pre-heparinized syringe via the carotid artery catheter before dosing and at t=5, 15, 30, 60, 120, 180, 360, and 480 minutes post dosing. 250 uL of blood was obtained at each time point from each animal. Equal volumes of 0.9% normal saline were replaced to prevent dehydration. The whole blood samples were maintained on ice until centrifugation. Blood samples were centrifuged at 14,000 rpm for 10 minutes at 4° C., and the upper plasma layer was transferred into a clean vial and store at −80° C.

Data set [2] deals with hVR1 (Homo sapiens, UniProt Q8NER1). The data set can be described thus: Calcium imaging assay (Fura2) of VR1 antagonists, proton stimulation. The settings on record: HEK 293 cells expressing hVR1; for % Inhibition @ 1 μM: calcium ion influx induced by proton stimulation (pH 5.7); for pIC50: calcium ion influx induced by proton stimulation. Format: cell-based. An outline of the steps: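 HEK293 cells expressing capsaicin-insensitive hVR1 were loaded with Fura2 (5 μg/mL, 37 °C, 40 min). Compound was added, then compound plus acid agonist (10 mM citric acid, pH 5.7), with the 340/380 nm ratio read every 4 s for 3 min. Peak-minus-baseline response gave % inhibition and an ID50 from dose-response curves.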
Sequence of hVR1 (Q8NER1 whole entry): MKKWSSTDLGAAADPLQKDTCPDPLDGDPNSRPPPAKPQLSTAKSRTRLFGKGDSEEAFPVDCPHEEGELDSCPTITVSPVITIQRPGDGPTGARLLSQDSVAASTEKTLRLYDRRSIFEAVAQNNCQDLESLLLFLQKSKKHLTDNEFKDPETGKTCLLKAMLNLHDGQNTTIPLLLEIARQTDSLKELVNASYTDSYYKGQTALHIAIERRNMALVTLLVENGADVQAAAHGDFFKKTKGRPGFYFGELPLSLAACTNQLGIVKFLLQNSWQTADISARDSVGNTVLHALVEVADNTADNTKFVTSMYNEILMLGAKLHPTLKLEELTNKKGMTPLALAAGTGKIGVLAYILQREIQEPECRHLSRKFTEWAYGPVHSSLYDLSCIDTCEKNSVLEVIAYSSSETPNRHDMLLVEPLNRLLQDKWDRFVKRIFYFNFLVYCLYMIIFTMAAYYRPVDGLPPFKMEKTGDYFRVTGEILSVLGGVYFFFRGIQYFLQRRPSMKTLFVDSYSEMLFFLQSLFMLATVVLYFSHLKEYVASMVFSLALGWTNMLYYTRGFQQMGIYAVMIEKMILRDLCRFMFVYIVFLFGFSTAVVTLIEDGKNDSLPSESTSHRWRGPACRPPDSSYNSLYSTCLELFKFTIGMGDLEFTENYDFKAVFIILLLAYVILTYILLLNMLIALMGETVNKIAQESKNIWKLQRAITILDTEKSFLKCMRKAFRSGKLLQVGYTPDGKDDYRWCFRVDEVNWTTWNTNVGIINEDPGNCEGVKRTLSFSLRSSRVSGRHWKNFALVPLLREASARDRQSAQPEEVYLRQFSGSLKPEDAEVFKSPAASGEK

Data set [3] concerns the target T1, HsVR1 (Homo sapiens, UniProt Q8NER1).
T1 construct: expressed in transfected cells; host or cells: Xenopus oocytes injected with HsVR1 RNA
The experiment in a line: Two-electrode voltage clamp recording of capsaicin induced VR1 current in Xenopus oocytes. Format: cell-based. The settings on record: 250 nM capsaicin induced current; Xenopus oocytes injected with HsVR1 RNA; read-out: EPHYS IC50. On the procedure: Xenopus ovaries obtained from NASCO were isolated by enzymatic dissociation using collagenase (Worthington, 2 mg/ml). Oocytes were then individually injected with HsVR1 RNA (0.5 μg/μl). Injected oocytes are stored in standard oocyte incubation solution, ND96, containing 96 mM NaCl, 2 mM KCl, 1 mM MgCl2, 0.3 mM CaCl2 and 50 µg/ml Gentamicin at 16° C. Capsaicin induced VR1 current is observed in oocytes 4-5 days after injection. Eight oocytes are placed in the recording chambers. Each oocyte is impaled by 2 glass electrodes having resistances of 0.5 to 1 MOhm when filled with a 3 M KCl solution. Electrode advancement and oocyte impalement are under software control (OpusXpress 1.1, Axon Instruments). VR1 expression in the oocytes is verified using 250 nM capsaicin. Test solution delivery to the oocytes during the experiment is also under software control. The solutions are prepared in 96 well plates and robotically pipetted into the oocyte recording chambers by an 8 channel pipetter. Oocytes are exposed to several 250 μl applications of 250 nM capsaicin until a stable current amplitude is obtained with each application. A set of 96 well plates containing the test solutions is prepared so that the sequence of solution application to the oocyte is as follows: 250 μls of 250 nM capsaicin is followed by a several minute wash with standard oocyte saline. 1 ml of the test compound is then added at a particular test concentration, followed immediately by 250 μl of the compound at the same concentration plus 250 nM capsaicin. The capsaicin induced VR1 current is recorded in the presence and absence of test compound for each concentration. The standard test concentrations range from 0.3 to 2000 nM. Quantitative measurement of VR1 current block was carried out by calculating the area under the curve described by the inward current. The resulting numbers for capsaicin induced currents in the presence of increasing compound concentration are normalized to the maximum current obtained. These points are then plotted on a logarithmic scale and fitted by a Hill function. The IC50 values for each compound tested were then calculated from the resulting Hill fit. All compounds that inhibited capsaicin induced current greater than 50% were considered positives.
A general note: Two-electrode voltage clamp holds a large cell at a set potential and records current.

T1 sequence (Q8NER1 whole entry): as above

Regarding `N#Cc1nc2c(c(Nc3ccc(C(F)(F)F)cc3)n1)CCN(c1ncccc1Cl)C2` [Example 37, 4-(4-(Trifluoromethyl)phenylamino)-7-(3-chloropyridin-2-yl)-5,6,7,8-tetrahydropyrido[3,4-d]pyrimidine-2-carbonitrile], in data set [1], the Cmax turned out to be 49.4 ng/mL, the time to peak (Tmax) worked out at 3.33 h, the Vd was determined as 12.4 L/kg and the bioavailability is 17.9%. Besides, in data set [1], the “Cls (L/hrKg)” value is 4.02 L/hrKg and the “T/2” value is 2.15 h. Further, in data set [2], the “% Inhibition @ 1 μM” value is “++++ (compound exhibited 76% or greater inhibition of calcium ion influx induced by proton stimulation)”. Besides, in data set [3], the negative logarithm of the IC50 (pIC50) was 6.30 to 7.00.
As for `FC(F)(F)c1ccc(Nc2ncnc3c2CCN(c2ncccc2Cl)C3)cc1` [Example 1, 7-(3-Chloropyridin-2-yl)-N-(4-(trifluoromethyl)phenyl)-5,6,7,8-tetrahydropyrido[3,4-d]pyrimidin-4-amine], in data set [1], the Cmax is 1380 ng/mL, the Tmax came to 1.01 h, the Vd stood at 1.28 L/kg and the bioavailability stood at 37%. For the same compound, in data set [1], the “Cls (L/hrKg)” value was found to be 0.34 L/hrKg and the “T/2” value is 2.52 h. In data set [2], the “% Inhibition @ 1 μM” value was “++++ (compound exhibited 76% or greater inhibition of calcium ion influx induced by proton stimulation)” and the pIC50 was 6.30 to 7.00. For the same compound, the pIC50 in data set [3] was 6.30 to 7.00.
For `FC(F)(F)c1ccc(Nc2nccc3c2CCN(c2ncccc2Cl)C3)cc1` [Example 26, 6-(3-Chloropyridin-2-yl)-N-(4-(trifluoromethyl)phenyl)-5,6,7,8-tetrahydro-2,6-naphthyridin-1-amine], the “% Inhibition @ 1 μM” value in data set [2] was “+ (compound exhibited 0-25% inhibition of calcium ion influx induced by proton stimulation)”. Also, in data set [3], the pIC50 was under 6.00.
`CS(=O)(=O)c1cccnc1N1CCc2c(ncnc2Nc2ccc(C(F)(F)F)cc2)C1` [Example 9, [7-(3-Methanesulfonyl-pyridin-2-yl)-5,6,7,8-tetrahydro-pyrido[3,4-d]pyrimidin-4-yl]-(4-trifluoromethyl-phenyl)-amine]: in data set [1], the highest level (Cmax) was 156 ng/mL, the time of peak concentration (Tmax) came to 1.67 h, the Vd is 13 L/kg and the bioavailability was 47.9%. For the same compound, in data set [1], the “Cls (L/hrKg)” value was found to be 1.99 L/hrKg and the “T/2” value is 4.37 h. Further, in data set [2], the “% Inhibition @ 1 μM” value is “++++ (compound exhibited 76% or greater inhibition of calcium ion influx induced by proton stimulation)” and the pIC50 was 6.30 to 7.00. Besides, in data set [3], the pIC50 was 6.30 to 7.00.
Regarding `COc1nc2c(c(Nc3ccc(C(C)(C)C)cc3)n1)CCN(c1ncccc1Cl)C2` [Example 29, N-(4-tert-Butylphenyl)-7-(3-chloropyridin-2-yl)-5,6,7,8-tetrahydro-2-methoxypyrido[3,4-d]pyrimidin-4-amine], in data set [2], the “% Inhibition @ 1 μM” value is given as “++++ (compound exhibited 76% or greater inhibition of calcium ion influx induced by proton stimulation)” and the pIC50 is over 7.00. Besides, in data set [3], the negative logarithm of the IC50 (pIC50) is over 7.00.
In the case of `Cc1cccc(N2CCc3c(ncnc3Nc3ccc(C(F)(F)F)cc3)C2)c1` [Example 46, 7-(m-Tolyl)-N-(4-(trifluoromethyl)phenyl)-5,6,7,8-tetrahydropyrido[3,4-d]pyrimidin-4-amine], in data set [2], the “% Inhibition @ 1 μM” value is “+ (compound exhibited 0-25% inhibition of calcium ion influx induced by proton stimulation)” and the pIC50 is under 6.00. In addition, the pIC50 in data set [3] was 6.00 to 6.30.
For `FC(F)(F)c1ccc(Nc2nc(NCCN3CCOCC3)nc3c2CCN(c2ncccc2Cl)C3)cc1` [Example 33, 7-(3-Chloropyridin-2-yl)-N^4-(4-(trifluoromethyl)phenyl)-5,6,7,8-tetrahydro-N^2-(2-morpholinoethyl)pyrido[3,4-d]pyrimidine-2,4-diamine], the “% Inhibition @ 1 μM” value in data set [2] was “+ (compound exhibited 0-25% inhibition of calcium ion influx induced by proton stimulation)”. In addition, the pIC50 in data set [3] was 6.00 to 6.30.
As to `COCc1nc2c(c(Nc3ccc(C(C)(C)C)cc3)n1)CCN(c1ncccc1Cl)C2.Cl` [Example 5, N-(4-tert-Butylphenyl)-7-(3-chloropyridin-2-yl)-5,6,7,8-tetrahydro-2-(methoxymethyl)pyrido[3,4-d]pyrimidin-4-amine hydrochloride], in data set [2], the “% Inhibition @ 1 μM” value was “++++ (compound exhibited 76% or greater inhibition of calcium ion influx induced by proton stimulation)” and the pIC50 is over 7.00. Also, in data set [3], the pIC50 is over 7.00.
For `COCc1nc2c(c(Nc3ccc(C(F)(F)F)cc3)n1)CCN(c1ncccc1Cl)C2` [Example 35, 7-(3-Chloropyridin-2-yl)-N-(4-(trifluoromethyl)phenyl)-5,6,7,8-tetrahydro-2-(methoxymethyl)pyrido[3,4-d]pyrimidin-4-amine], the “% Inhibition @ 1 μM” value in data set [2] is “++++ (compound exhibited 76% or greater inhibition of calcium ion influx induced by proton stimulation)”. The pIC50 in data set [3] was 6.30 to 7.00.
For `CCOc1nc2c(c(Nc3ccc(C(F)(F)F)cc3)n1)CCN(c1ncccc1S(C)(=O)=O)C2` [Example 64, 2-Ethoxy-N-(4-(trifluoromethyl)phenyl)-5,6,7,8-tetrahydro-7-(3-(methylsulfonyl)pyridin-2-yl)pyrido[3,4-d]pyrimidin-4-amine], in data set [2], the “% Inhibition @ 1 μM” value is “+++ (compound exhibited 51-75% inhibition of calcium ion influx induced by proton stimulation)” and the pIC50 was 6.00 to 6.30. Further, the pIC50 in data set [3] was 6.30 to 7.00.
Regarding `CCS(=O)(=O)c1cccnc1N1CCc2c(ncnc2Nc2ccc(C(F)(F)F)cc2)C1` [Example 10, 7-(3-(Ethylsulfonyl)pyridin-2-yl)-N-(4-(trifluoromethyl)phenyl)-5,6,7,8-tetrahydropyrido[3,4-d]pyrimidin-4-amine], in data set [2], the “% Inhibition @ 1 μM” value is “+++ (compound exhibited 51-75% inhibition of calcium ion influx induced by proton stimulation)” and the pIC50 was 6.30 to 7.00. The negative-log IC50 (pIC50) in data set [3] was 6.30 to 7.00.

The values are drawn from patent US7312330B2, “Bicycloheteroarylamine compounds as ion channel ligands and uses thereof” (Renovis, Inc., priority 2003, dated 2007).
